{
  "source": "patent US8710064B2",
  "about": "“2-aryl-4-quinazolinones and their pharmaceutical compositions” (China Medical University, priority 2011, dated 2014)",
  "key": {"H460": {"test_system": "H460", "assay": "trypan blue exclusion assay, H460 cells", "type": "cell-based", "details": "NCI-H460, H460 human non-small cell lung cancer", "method": "Hep3B (human hepatocellular carcinoma) and H460 (lung non-small carcinoma) cells were grown in monolayer culture in Dulbecco's modified Eagle's medium (DMEM) (Life Technologies, Rockville, Md., USA) containing 5% fetal bovine serum (HyClone, Logan, Utah, USA), 100 U/ml penicillin and 100 μg/ml streptomycin (Gibco BRL, Rockville, Md., USA) and 2 mM glutamine (Merck, Darmstadt, Germany).\n(§1) Cell viability was also determined by trypan-blue exclusion assay. Cells were seeded in 6-well plates (2×10^4/well) for trypan blue exclusion assay, and incubated for 24 hours at 37° C. Culture medium containing test compound or DMSO (0.006%) was added to each well, and cells were incubated at 37° C. At indicated time points (0, 24, 48, 72 and 96 hr), cells were suspended with 0.05% trypsin-EDTA, and stained with trypan-blue dye (0.4%) (Sigma). The cell viability was evaluated by the percentage of death relative to the total cell, and cell growth curve was determined by number of live cells relative to the total number of cells.\nThe anti-proliferation effects of Compounds 17-31 on M21, CH27, H460, Hep3B and HSC-3 cells were evaluated by the trypan blue exclusion assay."}, "C6 glioma cells": {"test_system": "C6 glioma cells", "assay": "trypan blue exclusion cell death assay, C6 glioma cells", "type": "cell-based, rat", "details": "60 nM, at the 72nd hour, p<0.05 versus control", "method": "as §1\n(§2) To investigate the glioma cell death induced by MJ-66, cell viability was assessed by trypan blue exclusion assay. C6 and U87 glioma cells treated with MJ-66 (30, 60, 90 nM) or DMSO (0.009%) for 0, 24, 48, 72 and 96 hours (hr) were observed under bright field microscope (FIG. 4A). The percentages of cell death and cell growth curve were determined by trypan blue assay followed by cell counting (mean±SEM, n=3). Relative to total cell number, trypan blue positive cells were defined as dead cells."}, "U87 glioma cells": {"test_system": "U87 glioma cells", "assay": "trypan blue exclusion cell death assay, U87 glioma cells", "type": "cell-based, human", "details": "60 nM, at the 48th hour, p<0.05 versus control", "method": "as §1, §2"}, "rat primary glia cells": {"test_system": "rat primary glia cells", "assay": "MTS cell viability assay, rat primary glia cells", "type": "cell-based", "details": "0.00625-1 μM", "method": "The human glioma cell lines U87, U251, T98G, U373, and rat glioma cell line RT2 provided by Dr. Michael Hsiao (Genomics Research Center, Academia Sinica, Taiwan) were cultured in Dulbecco's Modified Eagle medium (DMEM) (Caisson) supplemented with 10% fetal bovine serum (FBS) (Sigma-Aldrich), 2 mM L-glutamine (Caisson), 100 U/ml penicillin, and 100 μg/ml streptomycin (Caisson). The rat glioma C6 cell line provided by Dr. Shun-Fen Tzeng (National Cheng Kung University, Taiwan) was cultured in DMEM/F12 (Caisson) supplemented with 10% fetal bovine serum, 2 mM L-glutamine, 100 U/ml penicillin, and 100 μg/ml streptomycin. […] Cell proliferation was determined by MTS (tetrazolium compound, 3-(4,5-dimethylthiazol-2-yl)-5-(3-carboxymethoxyphenyl)-2-(4-sulfophenyl)-2H-tetrazolium) assay (Promega). […] The absorbance of soluble formazan was measured at 490 nm with microplate reader (Molecular device). The cell viability was determined by the percentage of the absorption relative to untreated control. […] To investigate the influence of MJ-66 on normal glia such as human glia cell line SVGP12 and rat primary glia cells, cells were treated with different concentrations of MJ-66 in vitro (0.00625, 0.0125, 0.025, 0.05, 0.1 and 1 μM) for different time durations (0, 6, 12 and 24 hours) and the cell viability was assessed by MTS assay. […]"}},
  "data": [
    {"molecule": "O=c1[nH]c(-c2cccc3ccccc23)nc2ccc(N3CCCC3)cc12", "note": "[Compound 23, 6-(Pyrrolidin-1-yl)-2-(naphthalen-1-yl)quinazolin-4-one]", "values": [
      {"measurement": "IC50", "setting": "H460", "value": 75, "unit": "nM"},
      {"measurement": "percentage of dead cells, C6", "setting": "C6 glioma cells", "value": "significantly induced"},
      {"measurement": "percentage of dead cells, U87", "setting": "U87 glioma cells", "value": "significantly induced"},
      {"measurement": "cell viability of rat glia cells", "setting": "rat primary glia cells", "value": "inhibited"}
    ]}
  ]
}
